{
  "source": "patent US8383681B2",
  "about": "“Droxidopa and pharmaceutical composition thereof for the treatment of mood disorders, sleep disorders or attention deficit disorders” (Chelsea Therapeutics, Inc., priority 2008, dated 2013)",
  "key": {"MAO-A": {"target": "T1, MAO-A (Homo sapiens, UniProt P21397)", "T1 sequence (P21397 1-527)": "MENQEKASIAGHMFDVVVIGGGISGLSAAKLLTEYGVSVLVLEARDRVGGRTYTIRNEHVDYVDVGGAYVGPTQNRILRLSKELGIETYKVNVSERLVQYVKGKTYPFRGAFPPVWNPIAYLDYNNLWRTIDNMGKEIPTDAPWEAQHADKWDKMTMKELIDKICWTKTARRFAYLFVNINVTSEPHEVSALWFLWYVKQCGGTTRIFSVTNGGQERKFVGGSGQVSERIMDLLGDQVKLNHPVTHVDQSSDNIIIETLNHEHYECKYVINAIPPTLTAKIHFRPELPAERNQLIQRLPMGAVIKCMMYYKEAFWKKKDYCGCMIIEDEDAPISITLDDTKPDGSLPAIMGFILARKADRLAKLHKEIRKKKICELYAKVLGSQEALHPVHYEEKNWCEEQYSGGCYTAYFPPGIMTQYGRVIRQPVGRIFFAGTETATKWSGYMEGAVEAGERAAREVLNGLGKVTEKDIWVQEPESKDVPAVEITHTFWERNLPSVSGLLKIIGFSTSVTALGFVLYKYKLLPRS", "conditions": "MAO-A versus MAO-B; cited from earlier work"}, "male CD-1 mice": {"system": "male CD-1 mice", "assay": "murine Forced Swim Test (FST), a mouse model of depression", "format": "in vivo", "conditions": "intraperitoneal; for effect on length of time spent immobile / depression, in words: doses per Table 1, ANOVA followed by T-test, versus vehicle; for length of time the mice spent immobile (average time immobile): one hour after dosing, immobility within the last 4 minutes of 6 minutes, mg/kg per Table 1: desipramine 10, entacapone 30, fluoxetine 18, venlafaxine 10, amitriptyline 10, droxidopa 400, carbidopa 20", "method": "The effect of droxidopa, alone or in combination with other drugs, in the treatment of depression was evaluated using the murine Forced Swim Test (FST), a mouse model of depression commonly used to evaluate antidepressive drugs. Depression (i.e., “learned helplessness” as evaluated by the FST model) was measured using the method of Porsolt et al., Arch. Int. Pharmacodyn. (1977), 229: 327-336. Briefly, male CD-1 mice weighing 22 g (±2 g) were fasted overnight prior to testing. The mice were randomized into 11 groups of 10 mice each. Mice in each group were treated with the vehicle alone, a drug, or a drug composition as outlined in Table 1 and returned to their respective groups.\nIn Table 1, the vehicle—2% TWEEN® 80 (i.e., polysorbate 80)—was included in all test compositions. One hour after dosing, the test mice were placed in a 1 liter volume glass beaker (height: 14.5 cm, diameter: 10.5 cm) containing water 6 cm in height at room temperature (22 to 24° C.) for 6 minutes. The duration of animal immobility within the last 4 minutes was then recorded. A mouse was judged to be immobile when it ceased struggling and remained floating in the water making only those movements necessary to keep its head above water. Data were analyzed by ANOVA for significant differences in group means, followed by T-test to distinguish statistically significant groups as appropriate."}},
  "note": "“Also recorded” adds a separate entry of the source.",
  "data": [
    {"smiles": "O=C(NCCN1CCOCC1)c1ccc(Cl)cc1", "note": "[moclobemide]", "values": [
      {"measurement": "selectivity for MAO-A than MAO-B", "setting": "MAO-A", "value": "approximately three times more selective for MAO-A than MAO-B"}
    ]},
    {"smiles": "CNCCC(Oc1ccc(C(F)(F)F)cc1)c1ccccc1", "note": "(centres unmarked) [fluoxetine]", "values": [
      {"measurement": "effect on length of time spent immobile / depression, in words", "setting": "male CD-1 mice", "value": "did not significantly decrease; also recorded: failed to decrease depression"},
      {"measurement": "length of time the mice spent immobile (average time immobile)", "setting": "male CD-1 mice", "value": 158.2, "unit": "s"}
    ]},
    {"smiles": "CN(C)CCC=C1c2ccccc2CCc2ccccc21", "note": "[amitriptyline]", "values": [
      {"measurement": "effect on length of time spent immobile / depression, in words", "setting": "male CD-1 mice", "value": "significant decrease"},
      {"measurement": "length of time the mice spent immobile (average time immobile)", "setting": "male CD-1 mice", "value": 60.0, "unit": "s"}
    ]},
    {"smiles": "CNCCCN1c2ccccc2CCc2ccccc21", "note": "[desipramine]", "values": [
      {"measurement": "effect on length of time spent immobile / depression, in words", "setting": "male CD-1 mice", "value": "did not significantly decrease; also recorded: failed to decrease depression"},
      {"measurement": "length of time the mice spent immobile (average time immobile)", "setting": "male CD-1 mice", "value": 136.4, "unit": "s"}
    ]},
    {"smiles": "COc1ccc(C(CN(C)C)C2(O)CCCCC2)cc1", "note": "(centres unmarked) [venlafaxine]", "values": [
      {"measurement": "effect on length of time spent immobile / depression, in words", "setting": "male CD-1 mice", "value": "did not significantly decrease; also recorded: failed to decrease depression"},
      {"measurement": "length of time the mice spent immobile (average time immobile)", "setting": "male CD-1 mice", "value": 117.5, "unit": "s"}
    ]},
    {"smiles": "CCN(CC)C(=O)/C(C#N)=C/c1cc(O)c(O)c([N+](=O)[O-])c1", "note": "[entacapone, (E)-2-cyano-N,N-diethyl-3-(3,4-dihydroxy-5-nitrophenyl)propenamide]", "values": [
      {"measurement": "effect on length of time spent immobile / depression, in words", "setting": "male CD-1 mice", "value": "did not significantly decrease"},
      {"measurement": "length of time the mice spent immobile (average time immobile)", "setting": "male CD-1 mice", "value": 129.9, "unit": "s"}
    ]}
  ]
}
